Tests used:
Test in all cases: relative viability (nuclei count vs DMSO), 5 days (fraction); higher = more cells survive
XMD13-2 + Foretinib = compound: C1CC1C(=O)NC2=NNC3=C2C=CC(=C3)C4=CC(=CC=C4)C(=O)NC5CC5 [XMD13-2] + COc1cc2c(Oc3ccc(NC(=O)C4(C(=O)Nc5ccc(F)cc5)CC4)cc3F)ccnc2cc1OCCCN1CCOCC1 [Foretinib] (partner 0.25 µM)
In short: (§1)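 Lung cancer cell lines were seeded in 1536-well plates and dosed by pin tool the next day, with either a single drug or a fixed anchor-drug dose combined with five library-drug doses (not always all listed) spaced in √10 steps. Five days later, one step fixed the cells and stained their nuclei (final 0.05% Triton X-100, 1% formaldehyde, 1 ug/ml Hoechst), and nuclei were counted on 4× images. Relative viability is the nuclei count in treated wells divided by the count in vehicle wells, and each value is the median of duplicate plates.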

ALW-II-49-7 + Lapatinib = compound: Cc1ccc(C(=O)Nc2cccc(C(F)(F)F)c2)cc1Nc1cncc(C(N)=O)c1 [ALW-II-49-7] + CS(=O)(=O)CCNCc1ccc(-c2ccc3ncnc(Nc4ccc(OCc5cccc(F)c5)c(Cl)c4)c3c2)o1 [Lapatinib] (partner 2 µM)
In short: as §1

XMD13-2 + Phenformin = compound: C1CC1C(=O)NC2=NNC3=C2C=CC(=C3)C4=CC(=CC=C4)C(=O)NC5CC5 [XMD13-2] + N=C(N)NC(=N)NCCc1ccccc1 [Phenformin] (partner 250 µM)
In short: as §1

ALW-II-49-7 + Crizotinib = compound: Cc1ccc(C(=O)Nc2cccc(C(F)(F)F)c2)cc1Nc1cncc(C(N)=O)c1 [ALW-II-49-7] + C[C@@H](Oc1cc(-c2cnn(C3CCNCC3)c2)cnc1N)c1c(Cl)ccc(F)c1Cl [Crizotinib] (partner 1 µM)
In short: as §1

Cell Line | relative viability (XMD13-2 + Foretinib; first compound 0.05 µM) | relative viability (XMD13-2 + Foretinib; first compound 0.1581 µM) | relative viability (XMD13-2 + Foretinib; first compound 0.5 µM) | relative viability (XMD13-2 + Foretinib; first compound 1.581 µM) | relative viability (XMD13-2 + Foretinib; first compound 5 µM) | relative viability (ALW-II-49-7 + Lapatinib; first compound 0.08 µM) | relative viability (ALW-II-49-7 + Lapatinib; first compound 0.253 µM) | relative viability (ALW-II-49-7 + Lapatinib; first compound 0.8 µM) | relative viability (ALW-II-49-7 + Lapatinib; first compound 2.53 µM) | relative viability (ALW-II-49-7 + Lapatinib; first compound 8 µM) | relative viability (XMD13-2 + Phenformin; first compound 0.05 µM) | relative viability (XMD13-2 + Phenformin; first compound 0.1581 µM) | relative viability (XMD13-2 + Phenformin; first compound 0.5 µM) | relative viability (XMD13-2 + Phenformin; first compound 1.581 µM) | relative viability (XMD13-2 + Phenformin; first compound 5 µM) | relative viability (ALW-II-49-7 + Crizotinib; first compound 0.08 µM) | relative viability (ALW-II-49-7 + Crizotinib; first compound 0.253 µM) | relative viability (ALW-II-49-7 + Crizotinib; first compound 0.8 µM) | relative viability (ALW-II-49-7 + Crizotinib; first compound 2.53 µM) | relative viability (ALW-II-49-7 + Crizotinib; first compound 8 µM)
NCI-H1915 | 1.12 | 1.08 | 1.12 | 1.11 | 1.21 | 0.949 | 1.01 | 0.914 | 0.848 | 0.644 | 0.381 | 0.362 | 0.367 | 0.371 | 0.379 | 0.896 | 0.863 | 0.828 | 0.682 | 0.572
NCI-H2009 | 1.3 | 1.2 | 1.2 | 1.17 | 1.3 | 0.913 | 1.02 | 0.819 | 0.728 | 0.466 | 0.473 | 0.486 | 0.54 | 0.454 | 0.517 | 1.02 | 1.02 | 0.964 | 0.835 | 0.729
NCI-H1651 | 0.866 | 0.808 | 0.799 | 0.744 | 0.827 | 0.719 | 0.879 | 0.672 | 0.776 | 0.794 | 0.382 | 0.323 | 0.392 | 0.37 | 0.343 | 0.947 | 0.767 | 0.823 | 0.862 | 0.835
HOP-62 | 1.11 | 1.13 | 1.19 | 1.06 | 1 | 1.17 | 1.24 | 1.1 | 0.806 | 0.639 | 0.671 | 0.687 | 0.837 | 0.595 | 0.553 | 0.855 | 1.05 | 1.02 | 0.563 | 0.817
CAL-12T | 1.22 | 1.07 | 1.09 | 1.11 | 1.01 | 0.641 | – | – | 0.568 | 0.697 | 0.575 | 0.538 | 0.61 | 0.538 | 0.665 | 0.537 | 0.625 | 0.686 | 0.62 | 0.385
NCI-H3122 | 0.966 | 0.949 | 1.05 | 0.977 | 0.939 | 1.11 | 0.92 | 1.05 | 1.11 | 1.05 | 0.612 | 0.37 | 0.4 | 0.374 | 0.353 | 0.309 | 0.272 | 0.271 | 0.331 | 0.307
PC-14 | 1.04 | 0.947 | 0.981 | 0.995 | 0.976 | 0.286 | 0.303 | 0.308 | 0.331 | 0.292 | 0.635 | 0.794 | 0.556 | 0.478 | 0.838 | 0.911 | 0.953 | 0.841 | 0.863 | 0.866
BEN | 0.802 | 0.829 | 0.654 | 0.53 | 0.737 | 0.721 | 0.814 | 0.649 | – | 0.629 | 0.28 | 0.263 | 0.254 | 0.26 | 0.311 | 0.722 | 0.866 | 0.81 | – | 0.834

From the supplement of paper PMC10307832
